# Experimental data: patent publication US6762202B2, “Infrared thermography and methods of use” (NitroMed, Inc., priority 2000, dated 2004)
# Tests used:
# labia and clitoris = experiment: Infrared thermographic measurement of labial/clitoral temperature after topical administration; assay type: in vivo, Female white New Zealand rabbits; settings: for temperature of the labia and clitoris following the application: 50 μL
# Method: Female white New Zealand rabbits were anaesthetized with pentobarbitol sodium and placed in a supine position on a warming pad. The warming pad was connected to a temperature control unit to maintain the core (rectal) temperature to 38° C. The labia and clitoris were exposed and kept in position by taping the surrounding skin to the nearby abdominal area. The infrared camera (THERMACAM® SC 1000, Inframetrics Inc., North Billerica, Mass.) was focused on the labia and clitoris and the animal was covered with a chamber to maintain the heat loss due to air movement.
# After a steady baseline temperature was maintained and recorded for at least 10 minutes the compound (50 μL) was applied to the surface of the labia and clitoris using a syringe and 27 G needle. The compound was formulated in a mixture of dimethyl sulfoxide (25%) and poly(ethylene glycols) (75%). The poly(ethylene glycols) was a mixture of poly(ethylene glycol) 1450 and poly(ethylene glycol) 400 in a ratio of 1:9 respectively.
# The images from the infrared camera were electronically transferred to a PC computer and analyzed using TherMonitor 95, version 1.61 (Thermoteknix System Ltd., Mount pleasant,Cambridge, U. K.). Various color scales in the visible wave length are used to depict the temperature change of the recorded images.
# labial blood flow = experiment: Laser doppler measurement of labial/clitoral blood flow after topical administration; assay type: in vivo, Female white New Zealand rabbits; settings: 5% or 10%, 50 μL topical in MIGLYOL; laser doppler probe; FIG. 6
# Method: Female white New Zealand rabbits were anaesthetized with Ketamine/Xylazine mixture and placed in supine position. A laser doppler probe (LASERFLO, BPM 403, Vasamedics, Inc., Minn.) was placed at the labium surface, and after steady baseline blood flow was maintained and recorded for at least 10 minutes, Example 5 (5%, 50 μL), 10% of Example 7 (10%, 50 μL), or vehicle alone (50 μL, MIGLYOL®) was applied to the surface of the labia and clitoris. […] The time course for the increase in blood flow (FIG. 6) was very similar to the time course for the increase in labial clitoral temperature (FIG. 5).
smiles,measurement,setting,value
"CC(C)(CN1C(=O)C2C3C=CC(C3)C2C1=O)SN=O (centres unmarked) [Example 1, 4-Aza-4-(2-methyl-2-(nitrosothio)propyl)tricyclo(5.2.1.0<2,6>)dec-8-ene-3,5-dione]",temperature of the labia and clitoris following the application,"labia and clitoris; 5% topical, ~32° C. prior to application, FIG. 3, vehicle gave no increase",35 °C
"CNC[C@H](O)c1cccc(O)c1 [phenylephrine, reference compound]",temperature after addition of the vasoconstrictor (decrease),"labia and clitoris; 10% applied 60 minutes after Example 2 (10%), monitored for 5 minutes, decrease from 36° C., FIG. 4",32 °C
"N[C@@H](CCC(=O)N[C@@H](CSN=O)C(=O)NCC(=O)O)C(=O)O [Example 7, N-(N-L-y-glutamyl-S-Nitroso-L-cysteinyl)glycine]",duration of sustained increase in labial blood flow,labial blood flow,> 60 min
same,increase in labial blood flow as compared to the baseline,labial blood flow,4 fold
same,change of labial clitoral temperature,"labia and clitoris; 2.5%, 50 μL topical in MIGLYOL, FIG. 5",slight and transient increase
same,increase of temperature of the labia and clitoris,"labia and clitoris; 5%, 50 μL topical in MIGLYOL, FIG. 5",3.5 °C
same,increase of temperature of the labia and clitoris,"labia and clitoris; 10%, 50 μL topical in MIGLYOL, FIG. 5",5.5 °C
"CC(C)(SN=O)C1COC(=O)N1 (centres unmarked) [Example 2, 4-(1-Methyl-1-(nitrosothio)ethyl)-1,3-oxazolidin-2-one]",temperature of the labia and clitoris following the application,"labia and clitoris; 10% topical, ~32° C. prior to application, FIG. 4",36 °C
same,melting point,,65 °C
"CC(C)CON=O [isobutyl nitrite, reference compound]",temperature of the labia and clitoris following the application,"labia and clitoris; 10% topical, ~30° C. prior to application, FIG. 1, vehicle gave no increase",32 °C
same,temperature of the labia and clitoris following the application,"labia and clitoris; 20% topical, ~31° C. prior to application, FIG. 2, vehicle gave no increase",34 °C
